By GI50 is commonly meant the concentration at which growth is held to half of that of the control. By inhibition is commonly meant the relative decrease from the control value, in per cent. A word on the LC50: it is the concentration that kills 50% of the test population.

The results in this text go back to PMC6691788, “Design and synthesis of phthalazine-based compounds as potent anticancer agents with potential antiangiogenic activity via VEGFR-2 inhibition” (Journal of Enzyme Inhibition and Medicinal Chemistry, 2019).

Entries after “also recorded” stand apart in the source; their conditions may differ. Read-outs that look alike come from different tables or passages of the source.

One assay relates to SF-539. Description: NCI 60 cell panel SRB screen. The class given is cell-based, human. The following applies: for GI50 / IC (TGI) / CC50: Homo sapiens, SF-539, 5 log dose; for CC50: 48 h, read-out: LC50 (the source's name); for percent cell growth promotion: SF-539, single dose 10 μM.
The subject of assay [1] is full NCI 60 cell panel. The experiment in a line: NCI 60 cell panel SRB screen, whole panel. The class given is cell-based, human. The following applies: for activity at 10 µM / inhibition at 10 µM: Homo sapiens, 60 cell; for activity at 10 µM: mean over the panel, single dose 10 μM, read-out: Mean percent cell growth promotion. From the text:
Aiming to evaluate the general antitumour activity of the synthesised phthalazines, the structures of the final compounds were submitted to National Cancer Institute “NCI” (www.dtp.nci.nih.gov), Bethesda, Maryland, USA. In vitro NCI anticancer screening involves two-stage process, the first stage started with the evaluation of the selected candidates against the full NCI 60 cell lines panel representing leukaemia, non-small cell lung cancer, melanoma, colon, CNS, breast, ovarian, renal and prostate cancers at a single dose of 10 µM. NCI selection is based on degree of structure variation and application of computer modelling techniques to prioritise compounds based on their ability to add diversity to the NCI small molecule compound collection.
Eight compounds (6b, 6e, 7b, 13a, 13c, 16a, 16d and 17a) were selected by NCI for further 5 log dose screening against full NCI 60 cell panel. All the 60 cell lines, representing nine tumour subpanels (leukaemia, non-small cell lung cancer, colon cancer, CNS cancer, prostate cancer, melanoma, ovarian cancer, renal cancer and breast cancer) which were incubated at five different concentrations (0.01, 0.1, 1, 10 and 100 µM) of each of the test compounds. The outcomes were used to create log concentration vs % growth inhibition curves, then three response parameters (GI50, TGI and LC50) were calculated for each cell line, (Tables S4 and S5 in Supplementary material).
The human tumor cell lines of the cancer-screening panel were grown in RPMI 1640 medium containing 5% fetal bovine serum and […] L-glutamine. For a typical screening experiment, cells are inoculated into 96 well microtiter plates in 100 ml at plating densities ranging from 5000 to 40,000 cells/well depending on the doubling time of individual cell lines. After cell inoculation, the microtiter plates are incubated at 37 °C, 5% CO2, 95% air and 100%
relative humidity for 24 h prior to addition of experimental drugs. After 24 h, two plates of each cell line are fixed in situ with TCA, to represent a measurement of the cell population for each cell line at the time of drug addition (Tz). Experimental drugs are dissolved in dimethyl sulfoxide at 400-fold the desired final maximum test concentration and stored frozen prior to use. At the time of drug addition, an aliquot of frozen concentrate is thawed and diluted to twice the desired final maximum test concentration with complete medium containing […] Gentamicin. Additional four, 10-fold or ½log serial dilutions are made to provide a total of five drug concentrations plus control. Aliquots of […] of these different drug dilutions are added to the appropriate microtiter wells already containing 100 ml of medium, resulting in the required final drug concentrations. Following drug addition, the plates are incubated for an additional 48 h at 37 °C, 5% CO2, 95% air, and 100% relative humidity. For adherent cells, the assay is terminated by the addition of cold TCA. Cells are fixed in situ by the gentle addition of […] of cold 50% (w/v) TCA (final concentration,10% TCA) and incubated for 60 min at 4 °C. The supernatant is discarded, and the plates are washed five times with tap water and air dried. Sulforhodamine B (SRB) solution (100 ml) at 0.4% (w/v) in 1% acetic acid is added to each well, and plates are incubated for 10 min at room temperature. After staining, unbound dye is removed by washing five times with 1% acetic acid and the plates are air dried. Bound stain is subsequently dissolved with 10 μM trizma base, and the absorbance is read on an automated plate reader at a wavelength of 515 nm. For suspension cells, the methodology is the same except that the assay is terminated by fixing settled cells at the bottom of the wells by gently adding […] of 80% TCA (final concentration, 16% TCA). […]

The subject of a further assay is SK-MEL-2. The experiment in a line: NCI 60 cell panel SRB screen. The class given is cell-based. The settings on record: for GI50 / IC (TGI) / CC50: Homo sapiens; for IC (TGI): read-out: TGI; for CC50: SK-MEL-2, 5 log dose, 48 h, read-out: LC50 (the source's name); for percent cell growth promotion: SK-MEL-2, single dose 10 μM.
For the next assay, the system named is EKVX. The experiment in a line: NCI 60 cell panel SRB screen. The settings on record: for GI50 / IC (TGI) / LC50: Homo sapiens, 5 log dose; for LC50: 48 h; for percent cell growth promotion: single dose 10 μM. The class given is cell-based, human.
The subject of assay [2] is full NCI 60 cell panel. Description: NCI 60 cell panel SRB screen, whole panel. The class given is cell-based, human. The following applies: for GI50: NCI 5-log dose, full 60 cell panel, read-out: GI50 values, range over the tested cell lines.
Another assay deals with SW-620. The experiment in a line: NCI 60 cell panel SRB screen. The class given is cell-based. The settings on record: Homo sapiens; for GI50 / IC (TGI) / CC50: SW-620, 5 log dose; for CC50: 48 h, read-out: LC50 (the source's name); for activity at 10 µM: SW-620, single dose 10 μM, read-out: percent cell growth promotion.
The test system of assay [3] is cleaved caspase-3 in MCF-7 cells. The experiment in a line: Cleaved caspase-3 immunostaining. It counts as cell-based. The following applies: MCF-7, 0.32 µM, 24 h and 48 h. The method, then:
Caspase-3 is a member of the cysteine-aspartic acid protease (caspase) family. Sequential activation of caspases is considered as one of the important keys in cellular apoptosis process. […] Cleaved caspase-3 further activates a cascade of caspases that induce cell death.
(§1) MCF7 cells were cultured on sterile cover slips (Harvard Apparatus, 22 mm2) in sterile six well plates at a density of 2×10^5 cells/well. Twenty-four hours after seeding, cells were exposed to GI50 concentration of compound 7b in fresh serum-free medium. At the end of the exposure, cells attached to cover slips were imaged with a light inverted microscope or washed with PBS and fixed with 3.7% paraformaldhyde for 10 min, permeabilized with 0.1% Triton X-100 in TBST containing 0.01% Tween 20 for 10 min, and blocked for 1 h with 5% goat serum in TBST. The fixed and permeabilized cells were incubated with cleaved caspase-3 rabbit mAb (Cell signaling technology, MA), at a dilution of 1:500, in blocking solution overnight at 4 °C, followed by secondary Cy3-goat anti-Rabbit antibody (Jackson Immuno Research, West Grove, PA) 1:1000 dilution, in the blocking solution for 1 hour, at room temperature. 4',6'-diamidino-2-phenylindole, dihydrochloride (DAPI) (Sigma– Aldrich, St. Louis, MO) was used as counter stain to stain the DNA. […]

The subject of another assay is MCF-7 cells. Description: Cellular and nuclear morphology (light microscopy, Dapi staining). The class given is cell-based. The settings on record: MCF-7, 0.32 µM, 24 and 48 h. Here is the method:
To further examine the apoptosis inducing effect of 7b, the cellular as well as nuclear morphological changes for MCF-7 cells treated with 7b (0.32 µM) were studied following Dapi staining. The effect of 7b on cell morphology was initially analysed with light microscopy.
as §1

The mark [4] stands for this setting: single dose 10 µM, read-out: cell growth inhibition against various cell lines.
Where [5] appears, read: single dose 10 µM, full panel, read-out: mean growth inhibition.

Take `Cc1nnc(Nc2ccc(NC(=O)Nc3ccc(Cl)cc3)cc2)c2ccccc12` [Compound 6e, 1–(4-Chlorophenyl)-3–(4-(4-methylphthalazin-1-ylamino)phenyl)urea]: the GI50 was 1.61 µM in the assay on SF-539; 2.22 µM in the assay on SK-MEL-2; 3.47 µM in the assay with EKVX; 0.15 to 8.41 µM with full NCI 60 cell panel [2] (Homo sapiens, 60 cell); 2.15 µM in the assay with SW-620. Further, the IC (TGI) is 3.32 µM with SF-539, 4.59 µM in the assay with SK-MEL-2, 17.9 µM in the assay with EKVX and 4.76 µM in the assay on SW-620. The figures for the CC50 in the assay on SF-539, in the assay with SK-MEL-2 and in the assay on SW-620 were 6.83 µM, 9.5 µM and 11.9 µM, respectively. Besides, the activity at 10 µM in the assay on full NCI 60 cell panel [1] came to 23.2%; in the assay with SW-620, 20.3%. The inhibition at 10 µM with full NCI 60 cell panel [1] (setting [4]) is above 90%. In the assay with full NCI 60 cell panel [1] (single dose 10 µM), the “cell growth inhibition, in words” value was “lethal effect (above 100% inhibition) against several leukaemia, melanoma, renal cancer cell lines”. This compound had an LC50 with EKVX of 87.8 µM.

Take `O=C(Nc1ccc(Cl)cc1)Nc1ccc(Oc2nncc3ccccc23)cc1` [Compound 7b, 1–(4-Chlorophenyl)-3–(4-(phthalazin-1-yloxy)phenyl)urea]: the GI50 in the assay on SF-539 is 0.28 µM; in the assay with SK-MEL-2 it was 1.57 µM; in the assay on EKVX, 1.61 µM; with full NCI 60 cell panel [2] (Homo sapiens, 60 cell), 0.15 to 8.41 µM; with full NCI 60 cell panel [2], 0.15 to 2.81 µM; in the assay with SW-620, 0.34 µM. For the same compound, the IC (TGI) in the assay with SF-539 is 1.13 µM; in the assay with SK-MEL-2, 3.65 µM; in the assay with EKVX, 4.5 µM; in the assay on SW-620 it was 1.06 µM. Besides, the CC50 amounted to 3.81 µM with SF-539, 8.5 µM in the assay with SK-MEL-2 and 30.3 µM in the assay with SW-620. Further, the activity at 10 µM with full NCI 60 cell panel [1] was -6.99%; in the assay with SW-620, -30.1%. Further, in the assay on full NCI 60 cell panel [1] (setting [5]), the inhibition at 10 µM came to 107%. In addition, in assay [3], the “cleaved caspase-3 protein expression” value is “concurrent increase in cleaved caspase-3 expression level; also recorded: time-dependent increase in cleaved caspase-3 protein expression; also recorded: increase the expression of cleaved caspase-3”. In addition, the LC50 with EKVX was above 100 µM. Also, the “cellular and nuclear morphology” value in the assay on MCF-7 cells was “deteriorated morphological changes including cell rounding, detachment and cellular fragmentation; also recorded: typical apoptotic characteristics; including condensation of chromatin (brightly stained cells), blubbing with the appearance of nuclear fragmentation”.

Turning to `Clc1ccc(Nc2nnc(CNc3ccccc3)c3ccccc23)cc1` [Compound 16a, N-(4-Chlorophenyl)-4-((phenylamino)methyl)phthalazin-1-amine], in the assay on SF-539, the GI50 amounted to 3.67 µM, the IC (TGI) was found to be 8.1 µM, the CC50 was determined as 17.8 µM and the “percent cell growth promotion” value is 33.99%. Moreover, in the assay on full NCI 60 cell panel [1], the activity at 10 µM amounted to 10.7%. Besides, in the assay with full NCI 60 cell panel [1] (setting [4]), the inhibition at 10 µM is above 90%. Also, in the assay on SK-MEL-2, halving of growth (GI50) required 2.16 µM, the IC (TGI) was 5.83 µM, the CC50 stood at 14.5 µM and the “percent cell growth promotion” value came to 8.63%. Also, in the assay with EKVX, the 50% growth inhibitory concentration (GI50) came out at 1.61 µM, the IC (TGI) stood at 15 µM, the LC50 is above 25 µM and the “percent cell growth promotion” value came to 16.86%. Also, the GI50 in the assay on full NCI 60 cell panel [2] (Homo sapiens, 60 cell) fell in the range of 0.15 to 8.41 µM. For the same compound, in the assay with full NCI 60 cell panel [2] (NCI 5 log dose), the “sensitivity in the 5 log dose assay, in words” value is “insensitive to prostate and MCF-7 breast cancer cell lines”. In the assay with SW-620, the GI50 is 3.84 µM, the IC (TGI) was found to be 11.1 µM, the CC50 was above 25 µM and the activity at 10 µM came to 30.8%.

As to `COc1cccc(NCc2nnc(Nc3ccc(Cl)cc3)c3ccccc23)c1` [Compound 16d, N-(4-Chlorophenyl)-4-((3-methoxyphenylamino)methyl)phthalazin-1-amine], the GI50 with SF-539 was 3.07 µM; with SK-MEL-2, 0.7 µM; in the assay on EKVX it was 0.58 µM; in the assay with full NCI 60 cell panel [2] (Homo sapiens, 60 cell), 0.15 to 8.41 µM; in the assay on SW-620, 2.98 µM. Moreover, the IC (TGI) amounted to 6.56 µM in the assay with SF-539, 3.98 µM in the assay on SK-MEL-2, 6.4 µM in the assay on EKVX and 8.13 µM in the assay on SW-620. The CC50 with SF-539 was determined as 14 µM; with SK-MEL-2, 11 µM; in the assay with SW-620 it was 22.2 µM. The “percent cell growth promotion” value with SF-539 was -10.19%; in the assay with SK-MEL-2, -34.44%; in the assay on EKVX, -0.28%. Further, the activity at 10 µM in the assay with full NCI 60 cell panel [1] is -16%; in the assay on SW-620 it was 11.9%. Also, the inhibition at 10 µM is 116% in the assay with full NCI 60 cell panel [1] (setting [5]) and above 90% with full NCI 60 cell panel [1] (setting [4]). For the same compound, the median lethal concentration (LC50) with EKVX was above 25 µM.
